Source: PubChem BioAssay (NCI)
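Each compound was tested at five concentrations against cells in 96-well plates for 48 hours. TGI: concentration producing complete growth inhibition.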

Tests used:
Test in all cases: growth of human tumour cells (NCI), 48 h
RPMI-8226 leukemia = system: RPMI-8226 leukemia
K-562 leukemia = system: K-562 leukemia
HCC-2998 colon = system: HCC-2998 colon
COLO 205 colon = system: COLO 205 colon
OVCAR-8 ovarian = system: OVCAR-8 ovarian
UO-31 renal = system: UO-31 renal
OVCAR-5 ovarian = system: OVCAR-5 ovarian
MCF7 breast = system: MCF7 breast
RXF 393 renal = system: RXF 393 renal
BT-549 breast = system: BT-549 breast

## CCCC(O)c1ccc2[nH]c3c(C)cc([N+](=O)[O-])c(C)c3c2c1 (stereo not given)
RPMI-8226 leukemia
  TGI: > 100 µM
K-562 leukemia
  TGI: > 100 µM
HCC-2998 colon
  TGI: > 100 µM
COLO 205 colon
  TGI: > 100 µM
OVCAR-8 ovarian
  TGI: > 100 µM
UO-31 renal
  TGI: > 100 µM
OVCAR-5 ovarian
  TGI: > 100 µM

## CCOc1c2c(cc3c1C(=O)c1c(OC)cccc1C3=O)C=C(OC)CC2
RPMI-8226 leukemia
  TGI: > 25 µM
K-562 leukemia
  TGI: > 25 µM
COLO 205 colon
  TGI: > 25 µM
MCF7 breast
  TGI: > 25 µM
OVCAR-8 ovarian
  TGI: > 25 µM
UO-31 renal
  TGI: > 25 µM
RXF 393 renal
  TGI: > 25 µM
OVCAR-5 ovarian
  TGI: > 25 µM

## COc1ccc(N2C(=O)[C@@H]3[C@@H]4CC(C)CC[C@@H]4c4c([nH]c5ccccc45)[C@@H]3C2=O)cc1 (stereo not given in full)
K-562 leukemia
  TGI: > 100 µM
HCC-2998 colon
  TGI: > 100 µM
COLO 205 colon
  TGI: > 55.1 µM
OVCAR-8 ovarian
  TGI: 40.1 µM
UO-31 renal
  TGI: > 55.9 µM
OVCAR-5 ovarian
  TGI: > 100 µM

## O=C1CC2(CCN(Cc3ccccc3)CC2)C(=O)N1N1CCCCC1
BT-549 breast
  TGI: > 100 µM
RPMI-8226 leukemia
  TGI: > 100 µM
K-562 leukemia
  TGI: > 100 µM
COLO 205 colon
  TGI: > 100 µM
MCF7 breast
  TGI: > 100 µM
OVCAR-8 ovarian
  TGI: > 100 µM
UO-31 renal
  TGI: > 100 µM
RXF 393 renal
  TGI: > 100 µM
OVCAR-5 ovarian
  TGI: > 100 µM

## COC(OC)c1cccc2c1C(=O)CCC1(CC2)OCCCCO1
RPMI-8226 leukemia
  TGI: > 100 µM
K-562 leukemia
  TGI: > 100 µM
HCC-2998 colon
  TGI: > 100 µM
COLO 205 colon
  TGI: > 100 µM
OVCAR-8 ovarian
  TGI: > 100 µM
UO-31 renal
  TGI: > 100 µM
RXF 393 renal
  TGI: > 100 µM
OVCAR-5 ovarian
  TGI: > 100 µM

## O=[N+]([O-])C(/C=C(\Cl)[N+](=O)[O-])=C(N1CCOCC1)N1CCOCC1
RPMI-8226 leukemia
  TGI: 54.6 µM
K-562 leukemia
  TGI: 37.6 µM
HCC-2998 colon
  TGI: 43 µM
COLO 205 colon
  TGI: 33.9 µM
MCF7 breast
  TGI: 35.3 µM
OVCAR-8 ovarian
  TGI: > 100 µM
UO-31 renal
  TGI: 54 µM
RXF 393 renal
  TGI: > 100 µM
OVCAR-5 ovarian
  TGI: 57.2 µM

## CC(NC(CC12CC3CC(CC(C3)C1)C2)C(N)=O)c1ccccc1 (stereo not given)
RPMI-8226 leukemia
  TGI: 40.5 µM
K-562 leukemia
  TGI: 41.4 µM
HCC-2998 colon
  TGI: 40.7 µM
COLO 205 colon
  TGI: 28.7 µM
MCF7 breast
  TGI: > 100 µM
OVCAR-8 ovarian
  TGI: 64.4 µM
UO-31 renal
  TGI: 51.4 µM
OVCAR-5 ovarian
  TGI: 42.5 µM

## CCn1c(=O)c2nc(SC)sc2n(-c2ccccc2)c1=S
RPMI-8226 leukemia
  TGI: > 100 µM
K-562 leukemia
  TGI: 55.1 µM
HCC-2998 colon
  TGI: > 100 µM
MCF7 breast
  TGI: > 100 µM
OVCAR-8 ovarian
  TGI: > 100 µM
UO-31 renal
  TGI: 35.4 µM
RXF 393 renal
  TGI: > 100 µM
OVCAR-5 ovarian
  TGI: > 100 µM

## COc1ccc(C(CC(=O)c2cccs2)C(=O)c2ccc3c(c2)OCO3)cc1 (stereo not given)
RPMI-8226 leukemia
  TGI: > 100 µM
K-562 leukemia
  TGI: > 100 µM
HCC-2998 colon
  TGI: > 100 µM
COLO 205 colon
  TGI: > 100 µM
MCF7 breast
  TGI: > 100 µM
OVCAR-8 ovarian
  TGI: > 100 µM

## COC1=CC(=O)C2(C=C1OC)OC[C@H]1Oc3c(ccc4c3C=CC(C)(C)O4)C(=O)[C@H]12 (stereo not given in full)
RPMI-8226 leukemia
  TGI: 49.3 µM
K-562 leukemia
  TGI: > 100 µM
HCC-2998 colon
  TGI: > 100 µM
COLO 205 colon
  TGI: > 100 µM
OVCAR-8 ovarian
  TGI: > 100 µM
UO-31 renal
  TGI: > 100 µM
RXF 393 renal
  TGI: > 100 µM
OVCAR-5 ovarian
  TGI: > 100 µM

## CN1C/C(=C\c2ccccc2)C2=NN(C(N)=S)[C@H](c3ccccc3)[C@@H]2C1
K-562 leukemia
  TGI: > 100 µM
HCC-2998 colon
  TGI: > 100 µM
COLO 205 colon
  TGI: > 100 µM
UO-31 renal
  TGI: > 100 µM
RXF 393 renal
  TGI: > 100 µM
OVCAR-5 ovarian
  TGI: > 100 µM

## CC(=O)OC1CCC2(C)C(CCC3C2CCC2(C)C(c4ccc(=O)oc4)C(OC(C)=O)CC32O)C1 (stereo not given)
RPMI-8226 leukemia
  TGI: 0.0595 µM
K-562 leukemia
  TGI: 0.141 µM
HCC-2998 colon
  TGI: 0.153 µM
COLO 205 colon
  TGI: 0.162 µM
MCF7 breast
  TGI: 0.229 µM
OVCAR-8 ovarian
  TGI: 0.0951 µM
UO-31 renal
  TGI: 0.0712 µM
RXF 393 renal
  TGI: 0.0128 µM
OVCAR-5 ovarian
  TGI: 0.173 µM

## O=C1OCc2nc3c(c(-c4ccccc4C(F)(F)F)c21)C(=O)OC3
RPMI-8226 leukemia
  TGI: > 100 µM
K-562 leukemia
  TGI: > 100 µM
HCC-2998 colon
  TGI: > 100 µM
COLO 205 colon
  TGI: > 100 µM
OVCAR-8 ovarian
  TGI: > 100 µM
UO-31 renal
  TGI: > 100 µM
RXF 393 renal
  TGI: > 100 µM
OVCAR-5 ovarian
  TGI: > 100 µM
